In patent US20200345725A1, “Methods and Compositions for Treating Cancer” (Omeros Corporation, priority 2019, published 2020):
pEC50: −log10 of the molar value. Several values for one entry are separate records, joined by “and”; a condition that tells them apart may be missing. Equal values may be shown once.

What was measured:
Format in all cases: cell-based
[1] = biological target: T1, GPR174 (Homo sapiens, UniProt Q9BXC1); test: CRE-Luc reporter Gs signaling assay with GPR174; design: host or cells: HEK293 or CHO cell lines (ATCC); details: for Gs pathway in the presence of GPR174 (CRE-Luc reporter): increasing concentrations of compound; for Fold decrease in Gs signaling activity / pEC50 / Human GPR174 CRE Activity: nature of the compound (IA, antagonist, NM): pCRE-Luc reporter; for pEC50: multiple values = separate experiments
Target sequence in this assay (Q9BXC1 whole entry): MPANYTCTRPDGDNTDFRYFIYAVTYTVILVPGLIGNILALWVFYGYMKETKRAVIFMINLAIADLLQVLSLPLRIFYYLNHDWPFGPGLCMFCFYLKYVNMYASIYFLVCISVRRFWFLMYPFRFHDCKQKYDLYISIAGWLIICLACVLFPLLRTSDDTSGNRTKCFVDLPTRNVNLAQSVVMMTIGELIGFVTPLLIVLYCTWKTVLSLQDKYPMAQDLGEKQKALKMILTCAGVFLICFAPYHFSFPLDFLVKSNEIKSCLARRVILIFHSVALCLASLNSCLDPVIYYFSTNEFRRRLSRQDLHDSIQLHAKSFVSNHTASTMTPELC

[2] = biological target: T2, ADBR2 (Homo sapiens, UniProt P07550); test: CRE-Luc reporter assay with control receptor ADBR2
T2 construct: host or cells: HEK293 or CHO cell lines (ATCC)
Method: The DNA/lipofectamine 2000 mix (3000 μL) was incubated at room temperature for 30 minutes and then added into a 10 cm culture dish (Corning, NY) containing 70-90% confluent cultured cells, (HEK293 or CHO cell lines (ATCC, VA)), in 15 mL of media. […] The cells were further incubated at 37° C. for various times. The media were removed and the cells lysed.
Compounds were tested in the reporter system with increasing concentrations of GPR174-interacting compounds.
The DNA/lipofectamine 2000 mix (3000 μL) was incubated at room temperature for 30 minutes and then added into a 10 cm culture dish (Corning, NY) containing 70-90% confluent cultured cells, typically HEK293 or CHO cell lines (ATCC, VA), in 15 mL of media. […] Media (26 mL) were added to the detached cells and 120 μL of transfected cells were transferred to each well on a 96-well plate. Increasing concentration of each compound in DMSO (1.2 μl) was added to the cells after plating into the 96-well plate. The cells were further incubated at 37° C. for various times. The media were removed, and the cells lysed.
ADBR2 is a GPCR, like GPR174, that activates the Gs signaling pathway.

[3] = biological target: T1, GPR174; test: Cellular redistribution assay (CRA) for GPR174; details: multiple values = separate experiments
Description: One method for identifying compounds capable of modulating a receptor is using a cellular redistribution assay (“CRA”). Exemplary CRA methods are found in U.S. Pat. No. 7,309,576 issued to O'Dowd et al. and in O'Dowd et al., J. Biomol. Screen. 12:175-85,2007. […] Incorporation of the NLS alters the cellular localization of the GPCR, such that the majority of the NLS-modified receptor is present in the cell interior. An NLS-modified GPCR, when interacting with a functionally active compound, is mostly localized on the cell surface. Thus, it becomes possible to identify receptor modulators without knowledge of the endogenous ligand or a surrogate ligand.
The inventors have identified a number of compounds that inhibit GPR174 using a CRA assay similar to that described in U.S. Pat. No. 7,309,576 and in O'Dowd et al., J. Biomol. Screen. 12:175-85, 2007. These compounds are described in detail below.
The inventors used a CRA similar to that described in U.S. Pat. No. 7,309,576 and O'Dowd et al., J. Biomol. Screen. 12:175-85, 2007 to identify compounds that are capable of interacting with GPR174 using a library of approximately 370,000 chemical entities. Briefly described, the CRA assay described in U.S. Pat. No. 7,309,576 involves artificially inserting a NLS into the dopamine D1 receptor (DRD1), which allows the receptor to traffic from the cell membrane to the cell interior, and that the binding of antagonists to the receptor retained the receptor at the cell surface, while removal of the ligand allowed the receptor to continue to internalize from the cell surface. Both antagonists and agonists that selectively bound the receptor retained the receptor on the plasma membrane. GPR174 constructs were generated for use in a CRA-based compound screening assay. From this screen, the inventors initially identified compounds of formula I-VI, as described herein and included in Table 1.
Target sequence in this assay (Q9BXC1 1-292 limits assumed): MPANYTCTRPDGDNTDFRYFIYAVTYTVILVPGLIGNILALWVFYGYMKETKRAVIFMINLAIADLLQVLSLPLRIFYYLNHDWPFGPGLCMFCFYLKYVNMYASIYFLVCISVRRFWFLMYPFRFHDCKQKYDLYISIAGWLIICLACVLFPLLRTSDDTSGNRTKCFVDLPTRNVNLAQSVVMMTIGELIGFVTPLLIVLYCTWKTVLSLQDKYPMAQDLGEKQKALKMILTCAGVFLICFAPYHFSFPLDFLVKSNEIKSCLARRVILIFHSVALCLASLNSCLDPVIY

T2 sequence (P07550 whole entry): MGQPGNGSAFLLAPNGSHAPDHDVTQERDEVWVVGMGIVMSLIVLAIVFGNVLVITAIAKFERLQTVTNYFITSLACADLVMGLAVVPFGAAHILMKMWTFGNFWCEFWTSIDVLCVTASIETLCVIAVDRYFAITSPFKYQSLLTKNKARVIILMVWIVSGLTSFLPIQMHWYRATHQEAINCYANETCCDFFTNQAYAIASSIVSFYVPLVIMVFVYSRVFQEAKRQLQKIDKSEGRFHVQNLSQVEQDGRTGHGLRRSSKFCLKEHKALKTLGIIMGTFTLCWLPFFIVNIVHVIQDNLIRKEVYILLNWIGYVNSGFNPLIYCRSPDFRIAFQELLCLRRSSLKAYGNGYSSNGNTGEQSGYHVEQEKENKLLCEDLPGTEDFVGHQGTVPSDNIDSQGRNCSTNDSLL

| Compound | Gs pathway in the presence of GPR174 (CRE-Luc reporter) [1] | Fold decrease in Gs signaling activity [1] | pEC50 [1] | Gs pathway in the presence of ADBR2 (CRE-Luc reporter) [2] | Human GPR174 CRE Activity: nature of the compound (IA, antagonist, NM) [1] | pEC50 [3] |
| --- | --- | --- | --- | --- | --- | --- |
| CCCCOc1ccc(C2C3=C(CCCC3=O)NC3=C2C(=O)c2ccccc23)cc1 (centres unmarked) [compound 31] | inhibited | 8.9 fold | 5.92 | did not inhibit | – | – |
| O=C1CCCC2=C1C(c1ccncc1)C1=C(N2)c2ccccc2C1=O (centres unmarked) [compound 42] | inhibited | 4.3 fold | 5.18 | did not inhibit | – | – |
| O=C1CCCC2=C1C(c1ccc3c(c1)OCCO3)C1=C(N2)c2ccccc2C1=O (centres unmarked) [compound 36] | inhibited | 8.3 fold | 5.59 | did not inhibit | – | – |
| Cc1ccc(-c2nnc(Nc3ccccc3)c3ccccc23)cc1S(N)(=O)=O [compound 19] | did not modulate | – | – | did not modulate | Antagonist or allosteric modulator | – |
| Cc1cc(Cc2ccc(NC(=O)c3cccs3)c(C)c2)ccc1NC(=O)c1cccs1 [compound 21] | did not modulate | – | – | did not modulate | GPR174 antagonist or allosteric modulator | – |
| CCOc1ccc(C2C3=C(CCCC3=O)NC3=C2C(=O)c2ccccc23)cc1 (centres unmarked) [compound 23] | inhibited | 14.1 fold | 6.40 and 6.05 and 5.92 and 6.00 | did not inhibit | – | – |
| CC(=O)N1CCN(c2cc(N3CCC(C)CC3)c(F)cc2[N+](=O)[O-])CC1 [compound 13] | – | 2.2 fold | 6.10 and 5.92 | – | – | < 5.70 |
| O=C1CCCC2=C1C(c1ccc(OCCO)cc1)C1=C(N2)c2ccccc2C1=O (centres unmarked) [compound 33] | inhibited | 9.2 fold | 5.36 | did not inhibit | – | – |
